Source: PubChem BioAssay AID858 (Vanderbilt High Throughput Screening Facility, 2007)
The source made the active and inactive calls.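 Rule for the calls: active = at least two of three replicate dose series yielding a converging curve fit, whether well or thinly supported; inactive = the rest.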

Target: D(1A) dopamine receptor (Homo sapiens) (UniProt P21728)
Assay: concentration-dependent D1 reporter signal change – cell-based, CRE-luciferase, HEK293, dopamine EC30, D1 allosteric modulator project, dose response (AID 858);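 note: HEK 293 cells bearing human D1 receptor stimulated by dopamine at its EC30; luciferase light from a cAMP response element reporter gene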

D(1A) dopamine receptor (Homo sapiens), sequence (P21728 whole entry, looked up): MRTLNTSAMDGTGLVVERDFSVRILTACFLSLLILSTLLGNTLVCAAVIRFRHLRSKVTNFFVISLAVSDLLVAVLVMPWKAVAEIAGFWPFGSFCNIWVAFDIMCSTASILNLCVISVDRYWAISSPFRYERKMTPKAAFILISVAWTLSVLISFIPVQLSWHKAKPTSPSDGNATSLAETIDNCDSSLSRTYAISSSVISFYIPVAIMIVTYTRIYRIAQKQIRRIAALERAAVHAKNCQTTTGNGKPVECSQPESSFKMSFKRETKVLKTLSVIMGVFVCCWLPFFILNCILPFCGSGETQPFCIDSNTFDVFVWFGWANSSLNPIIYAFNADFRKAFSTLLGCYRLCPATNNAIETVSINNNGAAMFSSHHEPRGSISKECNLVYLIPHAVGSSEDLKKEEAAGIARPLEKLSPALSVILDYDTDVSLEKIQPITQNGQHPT

Structure (SMILES) | outcome | EC50 [nM]
CCCCn1c2nc3ccccc3nc2c2c(=O)n(C(C)CC)cnc21 (configuration not stated) | inactive | –
Cc1ccc(-n2c(SCC(=O)OC(C)C)nnc2-c2cnccn2)cc1 | inactive | –
c1ccc(COc2nsnc2N2CCOCC2)cc1 | inactive | –
COc1ccc(S(=O)(=O)N2CCSC2c2ccc(OC)c(OC)c2)cc1 (configuration not stated) | inactive | –
CCCc1cc(=O)[nH]c(NCc2ccc(Cl)cc2)n1 | inactive | –
CCC(=O)N1CCc2cc(S(=O)(=O)NCCC(=O)NC3CCCc4ccccc43)ccc21 (configuration not stated) | inactive | –
CCOC(=O)C(C)Oc1cccc2c(=O)n(CC(=O)NCc3ccco3)ccc12 (configuration not stated) | inactive | –
NC(=O)CSc1nc2scc(-c3ccco3)c2c(=O)n1-c1ccccc1 | – | 1630
COc1ccc(-c2noc(COc3ccc4ccccc4c3Br)n2)cc1OC | inactive | –
CCSC(C)CC1C/C(=N/O)c2c(CC)noc2C1 (configuration not stated) | inactive | –
Cc1ccc2c(c1)-c1c(ssc1=S)C(C)(C)N2C(=O)CSc1nncn1C | inactive | –
Cc1noc(C)c1CSc1ncnc2ccccc12 | inactive | –
Cc1cc(-c2ccccc2)c(C#N)c(SCC(N)=O)n1 | inactive | –
O=S1(=O)N=C(N2CCc3ccccc3C2)c2ccccc21 | inactive | –
COc1ccccc1CNC(=O)c1ccc(NS(=O)(=O)c2c(C)noc2C)cc1 | inactive | –
COc1ccc(Cn2nnc3c(=O)[nH]c(C4CCCN(C(=O)c5ccccc5)C4)nc32)cc1 (configuration not stated) | inactive | –
Cc1cc(O)c(C=Nc2cccc(Cl)c2)c(=O)o1 | inactive | –
O=c1nc2scc(-c3ccccc3)n2c2ccccc12 | inactive | –
CCCCCn1c(N)c(C#N)c2nc3ccccc3nc21 | inactive | –
COc1ccc(OC)c(C(=O)COC(=O)C2CC3CCCC(C2)C3=O)c1 (configuration not stated) | inactive | –
Cc1cc(NS(=O)(=O)c2ccc(NC(=O)COc3ccccc3C(C)C)cc2)no1 | inactive | –
CCC(=O)n1nc(-c2ccco2)nc1N | inactive | –
COc1ccc(NC(=O)c2ccc(NS(=O)(=O)c3c(C)noc3C)cc2)cc1OC | inactive | –

Structure (SMILES) | outcome | EC50 [nM]
Nc1nc2n(n1)C(c1ccco1)CC(c1ccc(F)cc1)N2 (configuration not stated) | inactive | –
COc1c(S(=O)(=O)n2nc(C)cc2C)ccc(Cl)c1Cl | inactive | –
N#Cc1nc(-c2ccccc2Cl)oc1N1CCOCC1 | inactive | –
CCOC(=O)NCCc1ccc(OC)cc1 | inactive | –
COc1ccc(-c2cc(=O)oc3c(C)c(O)c(CN(C)C)cc23)cc1 | inactive | –
CCOC(=O)c1oc2ccc(Br)cc2c1NC(=O)CN1CCN(C)CC1 | inactive | –
CCOC(=O)CCSc1nc(C)c2ccccc2n1 | inactive | –
COc1ccc(N2C(=O)C3CCCN3C2c2ccccc2)cc1Cl (configuration not stated) | inactive | –
COCCNC(=O)c1c(NC(=O)c2ccco2)n(Cc2ccccc2)c2nc3ccccc3nc12 | inactive | –
Cc1cc(C)n(CC(=O)n2c3c(c4ccccc42)CCCC3)n1 | inactive | –
CCOC(=O)c1c(C2CC2)csc1NC(C)=O | inactive | –
Cc1[nH]n(-c2ccccc2)c(=O)c1S(=O)(=O)c1ccccc1 | inactive | –
COc1ccc(S(=O)(=O)Nc2ccc3c(c2)OCO3)cc1OC | inactive | –
N#Cc1c2c(nc(N)c1-c1ccccc1)CCCCC2 | inactive | –
COc1ccc(-c2noc(-c3ccco3)n2)cc1OC | inactive | –
CCOC(=O)N1CCN(S(=O)(=O)c2ccc3c(c2)CCN3C(=O)C2CCC2)CC1 | inactive | –
CCc1nc2ccccc2c(C(=O)OCC(=O)NCc2ccco2)c1C | inactive | –
CSc1oc(-c2ccco2)nc1S(=O)(=O)c1ccc(F)cc1 | inactive | –
COc1cccc(N2C(=O)C3ON(c4ccccc4)C(c4cccs4)C3C2=O)c1 (configuration not stated) | inactive | –
COC(=O)c1cc(NC(=O)CSc2nc(C)cc(=O)[nH]2)cc(C(=O)OC)c1 | inactive | –
O=c1n(Cc2ccccc2)c2cc(Cl)cnc2n1Cc1ccccc1 | inactive | –
C=CCn1c(=O)c2c(C)c(C)sc2n2c(Nc3ccc(OC)cc3)nnc12 | inactive | –
CCCCNC(=O)c1ccc2nc(-c3ccco3)c(-c3ccco3)nc2c1 | inactive | –

Structure (SMILES) | outcome | EC50 [nM]
COc1ccc(-c2coc3cc(O)cc(O)c3c2=O)cc1 | inactive | –
CCn1c(=O)c(C(=O)NCc2cccnc2)c(O)c2ccccc21 | inactive | –
NC(=O)COc1ccc(NC(=O)OCc2ccccc2)cc1 | inactive | –
CC(C)C1N=C2c3ccccc3N=C(SCC#N)N2C1=O (configuration not stated) | – | 3140
CCOC(=O)c1c(C)c(C(=O)NCc2ccccc2OC)c(C)n1C | inactive | –
Clc1cccc(Nc2c3c(nc4ncnn24)CCC3)c1 | inactive | –
Cc1cc(=O)n(CC=C(Cl)Cl)c2ccccc12 | inactive | –
Cc1ccc(CCNS(=O)(=O)c2cnc[nH]2)cc1 | inactive | –
COc1ccc(C2CC(c3cc(OC)ccc3OC)n3nnnc3N2)cc1 (configuration not stated) | inactive | –
O=S(=O)(Nc1cc(Cl)ccc1N1CCCCC1)c1cccs1 | inactive | –
CCOc1ncccc1C(=O)OCc1nnc(-c2ccccc2)o1 | inactive | –
CCOC(=O)C1CCCN(C(=O)c2cc(Cl)ccc2Cl)C1 (configuration not stated) | inactive | –
COc1ccc(-c2csc3nc(C)n(-n4cccc4)c(=O)c23)cc1OC | inactive | –
c1ccc(Nc2nc3ccccc3n3cnnc23)cc1 | inactive | –
CC(=O)c1cc(C#N)c(SCc2ccncc2)nc1C | inactive | –
CCOC(=O)Cc1[nH]nc2c1C(c1cccc(OC)c1OC)C(C#N)=C(N)O2 (configuration not stated) | inactive | –
Cc1cc(C)nc(SCC(=O)N2CCCCC2)n1 | inactive | –
CCOC(=O)N1CCC(N2Cc3cccc(C(=O)NC(C)c4ccc5c(c4)OCCO5)c3C2=O)CC1 (configuration not stated) | inactive | –
Cc1cc(C)nc(SCC(=O)Nc2ncc3c(n2)CC(C)(C)CC3=O)n1 | inactive | –
N#Cc1cc2ccccc2nc1SCC(=O)Nc1ccc(S(=O)(=O)N2CCCC2)cc1 | inactive | –
CCOC(=O)c1ccc(N2CN=C3SCC(=O)N3C2)cc1 | inactive | –
O=c1c2cc(Cl)ccc2[nH]c(=S)n1Cc1ccco1 | inactive | –
C=CCNC(=O)C1CC(c2cccc(OC)c2)=NO1 (configuration not stated) | inactive | –

Structure (SMILES) | outcome | EC50 [nM]
c1ccc(Cn2nnc3c(N4CCc5ccccc54)ncnc32)cc1 | inactive | –
CCn1c(SCC(=O)Nc2ccccc2N2CCCCC2)nc2c1c(=O)n(C)c(=O)n2C | inactive | –
O=C1COc2ccc(C(=O)c3ccccc3)cc2CN1 | inactive | –
CNc1nc(C)c(C(=O)OCC(=O)OC)s1 | inactive | –
Fc1cc(Br)ccc1Nc1nc2ccccc2n2nnnc12 | inactive | –
CCc1nnc(NC(=O)CSc2ncc(-c3ccccc3)n2CC)s1 | inactive | –
COc1ccccc1-c1nnc2n1N=C(C(C)(C)C)CS2 | inactive | –
COC(=O)c1sc2ccccc2c1C(=O)OC | inactive | –
COc1ccc(OC)c(/C=N/c2oc(-c3ccco3)c(-c3ccco3)c2C#N)c1 | – | 1970
Cc1ccc(Cn2c(-n3nc(C)cc3C)nc3c2c(=O)[nH]c(=O)n3C)cc1 | inactive | –
Cc1nnc(SCCn2c(N3CCCC(C)C3)nc3c2c(=O)[nH]c(=O)n3C)s1 (configuration not stated) | inactive | –
CCC(C)Nc1nc(OC)nc(N(C)C#N)n1 (configuration not stated) | inactive | –
Cc1cc(N2CCN(S(=O)(=O)c3ccc4c(c3)OCCO4)CC2)n2ncnc2n1 | inactive | –
C=CCn1c(SCc2nc3c(c(=O)[nH]c(=O)n3CCCC)n2CCC)nnc1-c1ccccc1 | inactive | –
Cc1sc2nc(C3CC3)nc(NCCNS(C)(=O)=O)c2c1C | inactive | –
Brc1ccc(-c2nn3c(Cc4ccccc4)nnc3s2)o1 | inactive | –
Cc1ccc(Oc2ccccc2)c(NC=O)c1 | inactive | –
NC(=O)c1c(NC(=O)CSc2nnc(-c3ccco3)n2-c2ccccc2)sc2c1CCC2 | inactive | –
Cc1cc(NC(=O)COc2nnc(-c3ccccc3)c3ccccc23)no1 | inactive | –
CCOCCOC(=O)C1=C(C)Nc2ccc(C)cc2S1 | inactive | –
CC(C)C1C2=C(CC(C)(C)CC2=O)ON1c1ccccc1 (configuration not stated) | inactive | –
O=C(c1cccn2c(=O)c3cc(Cl)ccc3nc12)N1CCN(Cc2ccc3c(c2)OCO3)CC1 | inactive | –
CC(C)Cc1nc(N2CCN(C(=O)C(C)C)CC2)c(C#N)c2c1CCC2 | inactive | –

Structure (SMILES) | outcome | EC50 [nM]
CCC(C)Sc1nc2c(c(=O)n1C)SC(C)C2 (configuration not stated) | inactive | –
CCOc1ccccc1C1NC(=O)NC(C)=C1C(=O)OC1CCCCC1 (configuration not stated) | inactive | –
N#CC1=C(N)Oc2n[nH]c(-c3cccs3)c2C1c1ccsc1 (configuration not stated) | inactive | –
O=C1C(Cl)=C(NCC2CCCO2)C(=O)N1C1CCCCC1 (configuration not stated) | inactive | –
Cc1ccc(-c2cc(-c3ccc(C)o3)nc(N)c2C#N)cc1 | inactive | –
Cc1cc(NCCCn2ccnc2)n2c(nc3ccccc32)c1C#N | inactive | –
O=C(c1ccco1)N1CCN(S(=O)(=O)c2ccc3c(c2)CCN3C(=O)C2CC2)CC1 | inactive | –
Cc1noc(C)c1S(=O)(=O)N1CCCC(C(=O)NCc2ccccn2)C1 (configuration not stated) | inactive | –
CC(C)OC(=O)CSc1nnc(-c2cnccn2)n1-c1ccc(Cl)cc1 | inactive | –
COc1ccc(C2CC(=O)Nc3ccccc3S2(=O)=O)cc1OC (configuration not stated) | inactive | –
CCCc1nc(N2CCOCC2)c(C#N)c2c1CCCC2 | inactive | –
Cn1c2c(c3ccccc31)CC/C2=N\O | inactive | –
Cn1c(SCc2ccon2)nc2ccccc2c1=O | inactive | –
COc1cc(OC)cc(C(=O)Nn2cc(C(=O)N3CCN(C)CC3)c3ccccc3c2=O)c1 | inactive | –
O=S(=O)(c1ccccc1)c1nc(-c2ccco2)oc1N1CCCCCC1 | inactive | –
COC(=O)c1c(-c2ccc(F)cc2)csc1NC(=O)c1ccco1 | inactive | –
Cc1nc2ccc(CCO)cc2s1 | inactive | –
O=CN1Cc2[nH]c3ccccc3c2N(c2ccc(Cl)cc2)C1=O | inactive | –
CSC1=NCCN1C(=O)c1ccc(Br)o1 | inactive | –
CCN(CCCNC(=O)CN(C)S(=O)(=O)c1cccc2nsnc12)c1cccc(C)c1 | inactive | –
